# In patent US6737383B1, “Herbicidal oxadiazolidines” (priority 1999, dated 2004):
# Tests used:
# wheat = assay: Test B pre/postemergence wheat; format: in vivo, Triticum aestivum
# Summary of the method: (§1)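 Test chemicals in a non-phytotoxic solvent mixture with surfactant were sprayed preemergence onto planted seeds and postemergence onto plants 2 to 18 cm tall (1- to 4-leaf stage). After twelve to sixteen days in a greenhouse, injury was visually rated against untreated controls from 0 (no effect) to 10 (complete control).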
# pigweed = assay: Test B pre/postemergence pigweed; format: in vivo, Amaranthus retroflexus
# Summary of the method: as §1
# smallflower flatsedge = assay: Test B flood test smallflower flatsedge; format: in vivo, Cyperus difformis
# Summary of the method: (§2)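 Read-out is a visual response score from 0 (no effect) to 10 (complete control), assigned by comparison with untreated controls. Treatment was applied at the 2-leaf stage, and plants stayed in the greenhouse for twelve to sixteen days before scoring.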
# cocklebur = assay: Test B pre/postemergence cocklebur; format: in vivo, Xanthium strumarium
# Summary of the method: as §1
# wild oat = assay: Test B pre/postemergence wild oat; format: in vivo, Avena fatua
# Summary of the method: as §1
# rice = assay: Test B flood test rice; format: in vivo, Oryza sativa
# Summary of the method: as §2
# bamyardgrass = assay: Test B flood test barnyardgrass; format: in vivo, Echinochloa crus-galli
# Summary of the method: as §2
# giant foxtail = assay: Test B pre/postemergence giant foxtail; format: in vivo, Setaria faberii
# Summary of the method: as §1
# sugar beet = assay: Test B pre/postemergence sugar beet; format: in vivo, Beta vulgaris
# Summary of the method: as §1
# corn = assay: Test B pre/postemergence corn; format: in vivo, Zea mays
# Summary of the method: as §1
# blackgrass = assay: Test B pre/postemergence blackgrass; format: in vivo, Alopecurus myosuroides
# Summary of the method: as §1
# velvetleaf = assay: Test B pre/postemergence velvetleaf; format: in vivo, Abutilon theophrasti
# Summary of the method: as §1
# rape = assay: Test B pre/postemergence rape; format: in vivo, Brassica napus
# Summary of the method: as §1
# purple nutsedge = assay: Test B pre/postemergence purple nutsedge; format: in vivo, Cyperus rotundus
# Summary of the method: as §1
# duck salad = assay: Test B flood test duck salad; format: in vivo, Heteranthera limosa
# Summary of the method: as §2
# crabgrass = assay: Test B pre/postemergence crabgrass; format: in vivo, Digitaria sanguinalis
# Summary of the method: as §1
# morningglory = assay: Test B pre/postemergence morningglory; format: in vivo, Ipomoea hederacea
# Summary of the method: as §1
# surinam grass = assay: Test B pre/postemergence surinam grass; format: in vivo, Brachiaria decumbens
# Summary of the method: as §1
# soybean = assay: Test B pre/postemergence soybean; format: in vivo, Glycine max
# Summary of the method: as §1
# [1] = Postemergence, Rate 31 g/ha, visual rating, scale 0 to 10 (0 no effect, 10 complete control)
# [2] = Postemergence, Rate 62 g/ha, scale 0 to 10, 0 is no effect, 10 is complete control
# [3] = Postemergence, Rate 125 g/ha, scale of 0 to 10 where 0 is no effect and 10 is complete control
# [4] = Preemergence, Rate 62 g/ha, scale of 0 to 10 where 0 is no effect and 10 is complete control
# [5] = Preemergence, Rate 125 g/ha, scale of 0 to 10 where 0 is no effect and 10 is complete control
# [6] = Preemergence, Rate 250 g/ha, scale 0 to 10 (0 no effect, 10 complete control)
# [7] = Rate 31 g/ha, Pre-emergence section (flood test species), scale 0 to 10
# [8] = Rate 62 g/ha, flood test species, Pre-emergence, visual evaluation after twelve to sixteen days
# [9] = Rate 125 g/ha, under heading Pre-emergence, flood test species, visual evaluation after twelve to sixteen days
# [10] = Rate 250 g/ha, Pre-emergence (flood test species), scale 0 to 10, 0 is no effect, 10 is complete control
# [11] = Postemergence, Rate 250 g/ha, scale of 0 to 10, 0 is no effect, 10 is complete control
# [12] = Preemergence, Rate 31 g/ha, visual rating, scale 0 to 10 (0 no effect, 10 complete control)
smiles,measurement,setting,value
CC(C)N(C(=O)n1oc(=O)n(CCC2=NOCCC2)c1=O)c1ccc(F)cc1 [Compound 656],Wheat plant response rating,wheat; [1],0
same,"Plant response rating, Wheat",wheat; [2],0
same,Wheat plant response rating,wheat; [3],0
same,Wheat plant response rating,wheat; [4],0
same,Wheat plant response rating,wheat; [5],0
same,"Plant response rating, Wheat",wheat; [6],0
same,Redroot pigweed plant response rating,pigweed; [1],0
same,"Plant response rating, Redroot pigweed",pigweed; [2],0
same,Redroot pigweed plant response rating,pigweed; [3],0
same,Redroot pigweed plant response rating,pigweed; [4],0
same,Redroot pigweed plant response rating,pigweed; [5],4
same,"Plant response rating, Redroot pigweed",pigweed; [6],6
same,S. Flatsedge plant response rating,smallflower flatsedge; [7],0
same,"Plant response rating, S. Flatsedge (0 to 10 scale, 0 is no effect, 10 is complete control)",smallflower flatsedge; [8],0
same,"S. Flatsedge plant response rating (0 to 10 scale, 0 is no effect, 10 is complete control)",smallflower flatsedge; [9],0
same,S. Flatsedge plant response rating,smallflower flatsedge; [10],0
same,Cocklebur plant response rating,cocklebur; [1],0
same,"Plant response rating, Cocklebur",cocklebur; [2],0
same,Cocklebur plant response rating,cocklebur; [3],0
same,Cocklebur plant response rating,cocklebur; [11],0
same,Cocklebur plant response rating,cocklebur; [12],0
same,Cocklebur plant response rating,cocklebur; [4],0
same,Cocklebur plant response rating,cocklebur; [5],0
same,"Plant response rating, Cocklebur",cocklebur; [6],0
same,Wild oats plant response rating,wild oat; [1],0
same,"Plant response rating, Wild oats",wild oat; [2],0
same,Wild oats plant response rating,wild oat; [3],0
same,Wild oats plant response rating,wild oat; [4],0
same,Wild oats plant response rating,wild oat; [5],0
same,"Plant response rating, Wild oats",wild oat; [6],6
same,Rice plant response rating,rice; [7],0
same,"Plant response rating, Rice (0 to 10 scale, 0 is no effect, 10 is complete control)",rice; [8],0
same,"Rice plant response rating (0 to 10 scale, 0 is no effect, 10 is complete control)",rice; [9],0
same,Rice plant response rating,rice; [10],0
same,Barnyardgrass plant response rating,bamyardgrass; [7],0
same,"Plant response rating, Barnyardgrass (0 to 10 scale, 0 is no effect, 10 is complete control)",bamyardgrass; [8],0
same,"Barnyardgrass plant response rating (0 to 10 scale, 0 is no effect, 10 is complete control)",bamyardgrass; [9],0
same,Barnyardgrass plant response rating,bamyardgrass; [10],0
same,Giant foxtail plant response rating,giant foxtail; [1],0
same,"Plant response rating, Giant foxtail",giant foxtail; [2],3
same,Giant foxtail plant response rating,giant foxtail; [3],9
same,Giant foxtail plant response rating,giant foxtail; [11],9
same,Giant foxtail plant response rating,giant foxtail; [12],4
same,Giant foxtail plant response rating,giant foxtail; [4],4
same,Giant foxtail plant response rating,giant foxtail; [5],10
same,"Plant response rating, Giant foxtail",giant foxtail; [6],10
same,Sugarbeets plant response rating,sugar beet; [1],0
same,"Plant response rating, Sugarbeets",sugar beet; [2],0
same,Sugarbeets plant response rating,sugar beet; [3],0
same,Sugarbeets plant response rating,sugar beet; [4],0
same,Sugarbeets plant response rating,sugar beet; [5],0
same,"Plant response rating, Sugarbeets",sugar beet; [6],3
same,Corn plant response rating,corn; [1],0
same,"Plant response rating, Corn",corn; [2],0
same,Corn plant response rating,corn; [3],0
same,Corn plant response rating,corn; [11],0
same,Corn plant response rating,corn; [12],0
same,Corn plant response rating,corn; [4],0
same,Corn plant response rating,corn; [5],0
same,"Plant response rating, Corn",corn; [6],0
same,Blackgrass plant response rating,blackgrass; [1],6
same,"Plant response rating, Blackgrass",blackgrass; [2],6
same,Blackgrass plant response rating,blackgrass; [3],7
same,Blackgrass plant response rating,blackgrass; [11],9
same,Blackgrass plant response rating,blackgrass; [12],2
same,Blackgrass plant response rating,blackgrass; [4],4
same,Blackgrass plant response rating,blackgrass; [5],4
same,"Plant response rating, Blackgrass",blackgrass; [6],5
same,Velvetleaf plant response rating,velvetleaf; [1],0
same,"Plant response rating, Velvetleaf",velvetleaf; [2],0
same,Velvetleaf plant response rating,velvetleaf; [3],0
same,Velvetleaf plant response rating,velvetleaf; [4],2
same,Velvetleaf plant response rating,velvetleaf; [5],4
same,"Plant response rating, Velvetleaf",velvetleaf; [6],6
same,Rape plant response rating,rape; [1],0
same,"Plant response rating, Rape",rape; [2],0
same,Rape plant response rating,rape; [3],0
same,Rape plant response rating,rape; [4],0
same,Rape plant response rating,rape; [5],0
same,"Plant response rating, Rape",rape; [6],0
same,Nutsedge plant response rating,purple nutsedge; [1],0
same,"Plant response rating, Nutsedge",purple nutsedge; [2],0
same,Nutsedge plant response rating,purple nutsedge; [3],0
same,Nutsedge plant response rating,purple nutsedge; [4],0
same,Nutsedge plant response rating,purple nutsedge; [5],0
same,"Plant response rating, Nutsedge",purple nutsedge; [6],0
same,Ducksalad plant response rating,duck salad; [7],0
same,"Plant response rating, Ducksalad (0 to 10 scale, 0 is no effect, 10 is complete control)",duck salad; [8],0
same,"Ducksalad plant response rating (0 to 10 scale, 0 is no effect, 10 is complete control)",duck salad; [9],0
same,Ducksalad plant response rating,duck salad; [10],0
same,Crabgrass plant response rating,crabgrass; [1],0
same,"Plant response rating, Crabgrass",crabgrass; [2],0
same,Crabgrass plant response rating,crabgrass; [3],0
same,Crabgrass plant response rating,crabgrass; [11],8
same,Crabgrass plant response rating,crabgrass; [12],6
same,Crabgrass plant response rating,crabgrass; [4],7
same,Crabgrass plant response rating,crabgrass; [5],7
same,"Plant response rating, Crabgrass",crabgrass; [6],8
same,Morningglory plant response rating,morningglory; [1],0
same,"Plant response rating, Morningglory",morningglory; [2],1
same,Morningglory plant response rating,morningglory; [3],2
same,Morningglory plant response rating,morningglory; [11],2
same,Morningglory plant response rating,morningglory; [4],0
same,Morningglory plant response rating,morningglory; [5],0
same,"Plant response rating, Morningglory",morningglory; [6],0
same,B. signalgrass plant response rating,surinam grass; [1],0
same,"Plant response rating, B. signalgrass",surinam grass; [2],0
same,"Plant response rating, B. signalgrass",surinam grass; [3],2
same,B. signalgrass plant response rating,surinam grass; [11],5
same,B. signalgrass plant response rating,surinam grass; [12],0
same,B. signalgrass plant response rating,surinam grass; [4],0
same,B. signalgrass plant response rating,surinam grass; [5],2
same,"Plant response rating, B. signalgrass",surinam grass; [6],6
same,Soybean plant response rating,soybean; [1],1
same,"Plant response rating, Soybean",soybean; [2],2
same,Soybean plant response rating,soybean; [3],2
same,Soybean plant response rating,soybean; [4],0
same,Soybean plant response rating,soybean; [5],0
same,"Plant response rating, Soybean",soybean; [6],0
